In ChEMBL document CHEMBL1800027, “Imidazolopiperazines: hit to lead optimization of new antimalarial agents” (J Med Chem, 2011):

Tests used:
Plasmodium falciparum [1] = assay: Antimalarial activity against Plasmodium falciparum W2 infected in human erythrocytes assessed as decrease in parasitemia after 72 hrs; format: functional, organism-based; settings: W2, 72 h
Plasmodium falciparum [2] = assay: Antimalarial activity against Plasmodium falciparum 3D7 infected in human erythrocytes assessed as decrease in parasitemia after 72 hrs; format: functional, organism-based; settings: 3D7, 72 h
in vitro [3] = settings: human, Caco-2
Description: Apparent permeability from basolateral to apical side in human Caco2 cells by LC/MS analysis

in vitro [4] = settings: human
Description: Metabolic stability in human hepatic microsomes assessed as extraction ratio by LC/MS/MS analysis

in vitro [5] = settings: human, Caco-2; remark: listed apart in the source
Description: Apparent permeability from apical to basolateral side in human Caco2 cells by LC/MS analysis

[6] = pampa
Description: Permeability of the compound assessed as amount of compound absorbed by PAMPA method

in vitro [7] = settings: mouse
Description: Metabolic stability in mouse hepatic microsomes assessed as extraction ratio by LC/MS/MS analysis

in vitro [8] = settings: rat
Description: Metabolic stability in rat hepatic microsomes assessed as extraction ratio by LC/MS/MS analysis

in vivo [9] = settings: female, CD1, mouse, iv, 5 mg/kg
Description: Clearance in female CD1 mouse at 5 mg/kg, iv by LC/MS/MS analysis

in vivo [10] = settings: female, CD1, mouse, iv, 5 mg/kg; remark: listed apart in the source
Description: Half-life in female CD1 mouse at 5 mg/kg, iv by LC/MS/MS analysis

in vivo [11] = settings: female, CD1, mouse, po, 30 mg/kg
Description: Half life in female CD1 mouse at 20 mg/kg, po by LC/MS/MS analysis

in vivo [12] = settings: female, CD1, mouse, plasma, iv, 5 mg/kg
Plasmodium berghei [13] = assay: Antimalarial activity against GFP-tagged Plasmodium berghei ANKA infected in NMRI mouse assessed as mouse survival at 100 mg/kg, po administered as single dose 24 hrs post infection measured on day 30 post infection
[14] = target: Voltage-gated inwardly rectifying potassium channel KCNH2 (Homo sapiens, UniProt Q12809)
Voltage-gated inwardly rectifying potassium channel KCNH2, sequence (Q12809 whole entry): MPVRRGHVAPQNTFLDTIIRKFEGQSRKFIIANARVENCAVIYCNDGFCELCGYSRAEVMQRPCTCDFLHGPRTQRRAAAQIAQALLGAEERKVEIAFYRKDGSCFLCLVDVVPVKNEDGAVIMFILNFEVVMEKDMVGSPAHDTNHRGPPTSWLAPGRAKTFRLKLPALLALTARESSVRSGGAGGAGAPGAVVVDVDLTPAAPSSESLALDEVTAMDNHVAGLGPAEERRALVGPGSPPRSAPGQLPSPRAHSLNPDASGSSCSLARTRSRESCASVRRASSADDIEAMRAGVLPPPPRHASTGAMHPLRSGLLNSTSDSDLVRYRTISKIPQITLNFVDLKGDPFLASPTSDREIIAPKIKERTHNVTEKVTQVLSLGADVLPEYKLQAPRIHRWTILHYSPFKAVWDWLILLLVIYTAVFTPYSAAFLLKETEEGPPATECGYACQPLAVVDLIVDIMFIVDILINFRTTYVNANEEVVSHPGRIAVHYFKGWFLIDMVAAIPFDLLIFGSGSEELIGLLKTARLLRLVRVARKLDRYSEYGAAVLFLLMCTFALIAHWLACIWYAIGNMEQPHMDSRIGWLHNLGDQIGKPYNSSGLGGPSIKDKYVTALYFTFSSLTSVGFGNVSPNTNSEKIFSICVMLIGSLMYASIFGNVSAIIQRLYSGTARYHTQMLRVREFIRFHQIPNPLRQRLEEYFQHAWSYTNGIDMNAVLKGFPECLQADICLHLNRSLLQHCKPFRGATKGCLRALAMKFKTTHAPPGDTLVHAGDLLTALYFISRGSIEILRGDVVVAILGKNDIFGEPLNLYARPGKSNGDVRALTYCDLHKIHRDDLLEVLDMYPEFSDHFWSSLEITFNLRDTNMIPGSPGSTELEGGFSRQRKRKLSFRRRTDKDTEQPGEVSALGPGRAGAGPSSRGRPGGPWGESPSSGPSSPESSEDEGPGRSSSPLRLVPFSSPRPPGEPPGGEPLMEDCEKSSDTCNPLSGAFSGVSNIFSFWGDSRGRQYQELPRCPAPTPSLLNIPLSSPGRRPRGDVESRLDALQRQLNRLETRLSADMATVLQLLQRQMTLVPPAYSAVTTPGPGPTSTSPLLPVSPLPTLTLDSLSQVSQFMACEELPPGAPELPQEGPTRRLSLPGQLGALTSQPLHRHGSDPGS
Description: Inhibition of human ERG expressed in CHO cells by Q-patch assay

in vivo [15] = settings: female, CD1, mouse, plasma, po, 30 mg/kg
in vivo [16] = settings: female, CD1, mouse, iv, 5 mg/kg; remark: listed apart in the source
Description: Volume of distribution in female CD1 mouse at 5 mg/kg, iv by LC/MS/MS analysis

[17] = Oral bioavailability in female CD1 mouse at 30 mg/kg by LC/MS/MS analysis; settings: female, CD1, mouse, in vivo
[18] = Tmax in female CD1 mouse at 30 mg/kg, po by LC/MS/MS analysis; settings: in vivo
Plasmodium berghei [19] = assay: Antimalarial activity against GFP-tagged Plasmodium berghei ANKA infected in NMRI mouse assessed as mouse survival at 30 mg/kg, po administered as single dose 24 hrs post infection measured 72 hrs post infection
Plasmodium berghei [20] = assay: Antimalarial activity against GFP-tagged Plasmodium berghei ANKA infected in NMRI mouse assessed as reduction in parasitemia at 30 mg/kg, po QD administered 24 hrs post infection for 3 days measured on day 4 post infection; format: functional; set-up: scale not given: the % may be the effect or the level left
[21] = Cmax in female CD1 mouse at 30 mg/kg, po by LC/MS/MS analysis; settings: in vivo
Plasmodium berghei [22] = assay: Antimalarial activity against GFP-tagged Plasmodium berghei ANKA infected in NMRI mouse assessed as reduction in parasitemia at 30 mg/kg, po administered as single dose 24 hrs post infection measured 72 hrs post infection; format: functional; set-up: scale not given: the % may be the effect or the level left
[23] = Selectivity index, ratio TC50 for human HuH7 cells to IC50 for Plasmodium falciparum; format: functional, Huh-7
[24] = Cytotoxicity against human HuH7 cells; format: cell-based; settings: Huh-7 cells, read-out: TC50 (the source's name)
[25] = Selectivity index, ratio TC50 for human HeLa cells to IC50 for Plasmodium falciparum; format: functional
Plasmodium berghei [26] = assay: Antimalarial activity against GFP-tagged Plasmodium berghei ANKA infected in NMRI mouse assessed as mouse survival at 30 mg/kg, po QD administered 24 hrs post infection for 3 days measured on day 30 post infection; format: functional

## CC(C)(N)C(=O)N1CCn2c(nc(-c3ccccc3F)c2Nc2ccc(F)cc2)C1
Plasmodium falciparum [1]
  IC50: 1280 nM
Plasmodium falciparum [2]
  IC50: 1390 nM

## CC(C)(N)C(=O)N1CCn2c(nc(-c3ccc(F)cc3)c2Nc2cc(F)cc(F)c2)C1
Plasmodium falciparum [1]
  IC50: 244 nM
Plasmodium falciparum [2]
  IC50: 220 nM

## CC(C)(N)C(=O)N1CCn2c(nc(-c3ccc(F)cc3)c2Nc2cccnc2)C1
Plasmodium falciparum [1]
  IC50: 3320 nM
Plasmodium falciparum [2]
  IC50: 1410 nM

## NCC(=O)N1CCn2c(nc(-c3ccc(F)cc3)c2Nc2cccc(F)c2)C1
Plasmodium falciparum [1]
  IC50: 34 nM
Plasmodium falciparum [2]
  IC50: 50 nM

## NCC(=O)N1CCn2c(nc(-c3ccc(F)cc3)c2Nc2ccc(Cl)cc2)C1
In vitro [3]
  Papp B→A: 1.25 ×10⁻⁶ cm/s
Plasmodium falciparum [1]
  IC50: 9 nM
In vitro [4]; liver microsomes
  hepatic extraction ratio: 0.55
In vitro [5]
  Papp A→B: 0.44 ×10⁻⁶ cm/s
Plasmodium falciparum [2]
  IC50: 10 nM
[6]
  permeability: 52%
In vitro [7]; liver microsomes
  hepatic extraction ratio: 0.17
In vitro [8]; liver microsomes
  hepatic extraction ratio: 0.63

## NCC(=O)N1CCn2c(nc(-c3ccc(F)cc3)c2Nc2ccc(F)c(F)c2)C1
In vitro [3]
  Papp B→A: 2.99 ×10⁻⁶ cm/s
Plasmodium falciparum [1]
  IC50: 23 nM
In vitro [4]; liver microsomes
  hepatic extraction ratio: 0.21
In vitro [5]
  Papp A→B: 0.99 ×10⁻⁶ cm/s
Plasmodium falciparum [2]
  IC50: 30 nM
In vitro [7]; liver microsomes
  hepatic extraction ratio: 0.21
In vitro [8]; liver microsomes
  hepatic extraction ratio: 0.38

## CC(C)(N)C(=O)N1CCn2c(nc(-c3ccc(F)cc3)c2Nc2ccc(Cl)c(F)c2)C1
In vivo [9]
  clearance: 5.8 mL/min/kg
In vitro [3]
  Papp B→A: 0.87 ×10⁻⁶ cm/s
In vivo [10]
  half-life: 7.8 h
In vivo [11]
  half-life: 9.1 h
In vivo [12]
  AUC(0-inf): 25.5 µM·h
Plasmodium berghei [13]
  Survival: 11 days
[14]
  IC50: 5600 nM
Plasmodium falciparum [1]
  IC50: 52 nM
In vivo [15]
  AUC(0-inf): 36.7 µM·h
In vivo [16]
  Vd: 1.7 L/kg
In vitro [4]; microsomes
  hepatic extraction ratio: 0.48
In vitro [5]
  Papp A→B: 0.84 ×10⁻⁶ cm/s
[17]
  bioavailability: 24%
[18]
  Tmax: 2 h
Plasmodium falciparum [2]
  IC50: 40 nM
Plasmodium berghei [19]
  Survival: 7 days
Plasmodium berghei [20]
  Activity: 99.8%
[6]
  permeability: 94%
In vitro [7]; microsomes
  hepatic extraction ratio: 0.76
In vitro [8]; microsomes
  hepatic extraction ratio: 0.67
[21]
  Cmax: 3320 nM

## CC(C)(N)C(=O)N1CCn2c(nc(-c3ccc(F)cc3)c2Nc2ccc(F)cc2F)C1
Plasmodium falciparum [1]
  IC50: 90 nM
Plasmodium falciparum [2]
  IC50: 110 nM

## N[C@@H](Cc1ccccc1)C(=O)N1CCn2c(nc(-c3ccc(F)cc3)c2Nc2ccc(F)cc2)C1
Plasmodium falciparum [1]
  IC50: 121 nM
Plasmodium falciparum [2]
  IC50: 110 nM

## N[C@H](Cc1ccccc1)C(=O)N1CCn2c(nc(-c3ccc(F)cc3)c2Nc2ccc(F)cc2)C1
Plasmodium falciparum [1]
  IC50: 59 nM
Plasmodium falciparum [2]
  IC50: 70 nM

## CC(C)(N)C(=O)N1CCn2c(nc(-c3ccccc3)c2Nc2ccc(F)cc2)C1
Plasmodium falciparum [1]
  IC50: 168 nM
Plasmodium falciparum [2]
  IC50: 200 nM

## NCC(=O)N1CCn2c(nc(-c3ccc(Cl)cc3)c2Nc2ccc(F)cc2)C1
Plasmodium falciparum [1]
  IC50: 437 nM
Plasmodium falciparum [2]
  IC50: 660 nM

## COc1ccc(-c2nc3n(c2Nc2ccc(F)cc2)CCN(C(=O)CN)C3)cc1
Plasmodium falciparum [1]
  IC50: 1700 nM
Plasmodium falciparum [2]
  IC50: 2270 nM

## Cc1ccc(-c2nc3n(c2Nc2ccc(F)cc2)CCN(C(=O)CN)C3)cc1
Plasmodium falciparum [1]
  IC50: 3360 nM
Plasmodium falciparum [2]
  IC50: 3140 nM

## NCC(=O)N1CCn2c(nc(-c3cccc(F)c3)c2Nc2ccc(F)cc2)C1
In vivo [9]
  clearance: 192 mL/min/kg
In vitro [3]
  Papp B→A: 2.32 ×10⁻⁶ cm/s
In vivo [10]
  half-life: 1.8 h
In vivo [11]
  half-life: 1 h
In vivo [12]
  AUC(0-inf): 1.23 µM·h
Plasmodium berghei [13]
  Survival: 10 days
[14]
  IC50: > 30000 nM
Plasmodium falciparum [1]
  IC50: 30 nM
In vivo [15]
  AUC(0-inf): 1.33 µM·h
In vivo [16]
  Vd: 21.6 L/kg
In vitro [5]
  Papp A→B: 0.56 ×10⁻⁶ cm/s
[17]
  bioavailability: 18%
[18]
  Tmax: 2 h
Plasmodium falciparum [2]
  IC50: 10 nM
Plasmodium berghei [19]
  Survival: 6 days
Plasmodium berghei [22]
  Activity: 86%
Plasmodium berghei [20]
  Activity: 99.7%
In vitro [7]; liver microsomes
  hepatic extraction ratio: 0.31
[21]
  Cmax: 417 nM

## Cc1ccc(Nc2c(-c3ccc(F)c(F)c3)nc3n2CCN(C(=O)C(C)(C)N)C3)cc1
Plasmodium falciparum [1]
  IC50: 50 nM
Plasmodium falciparum [2]
  IC50: 60 nM

## CC(C)(N)C(=O)N1CCn2c(nc(-c3ccc(F)cc3)c2NC2CCCCC2)C1
Plasmodium falciparum [1]
  IC50: 5980 nM
Plasmodium falciparum [2]
  IC50: 9610 nM

## Fc1ccc(Nc2c(-c3ccc(F)cc3)nc3cnccn23)cc1
Plasmodium falciparum [1]
  IC50: 5520 nM
Plasmodium falciparum [2]
  IC50: > 10 nM

## Fc1ccc(Nc2c(-c3ccc(F)cc3)nc3n2CCNC3)cc1
Plasmodium falciparum [1]
  IC50: 175 nM
Plasmodium falciparum [2]
  IC50: 200 nM

## NCC(=O)N1CCn2c(nc(-c3ccc(F)cc3)c2Nc2ccc(F)cc2)C1
In vivo [9]
  clearance: 189 mL/min/kg
In vivo [10]
  half-life: 2.7 h
In vivo [11]
  half-life: 4.2 h
In vivo [12]
  AUC(0-inf): 1.07 µM·h
Plasmodium falciparum [1]
  IC50: 23 nM
In vivo [15]
  AUC(0-inf): 0.965 µM·h
In vivo [16]
  Vd: 12.3 L/kg
In vitro [5]
  Papp A→B: 0.7 ×10⁻⁶ cm/s
[17]
  bioavailability: 15%
[18]
  Tmax: 2 h
Plasmodium falciparum [2]
  IC50: 20 nM
[6]
  permeability: 52%
[21]
  Cmax: 234 nM

## NCCC(=O)N1CCn2c(nc(-c3ccc(F)cc3)c2Nc2ccc(F)cc2)C1
Plasmodium falciparum [1]
  IC50: 75 nM
Plasmodium falciparum [2]
  IC50: 70 nM

## C[C@H](N)C(=O)N1CCn2c(nc(-c3ccc(F)cc3)c2Nc2ccc(F)cc2)C1
Plasmodium falciparum [1]
  IC50: 64 nM
Plasmodium falciparum [2]
  IC50: 90 nM

## CC(C)[C@H](N)C(=O)N1CCn2c(nc(-c3ccc(F)cc3)c2Nc2ccc(F)cc2)C1
Plasmodium falciparum [1]
  IC50: 24 nM
Plasmodium falciparum [2]
  IC50: 30 nM

## NC(Cc1ccccc1)C(=O)N1CCn2c(nc(-c3ccccc3)c2Nc2ccc3c(c2)OCO3)C1 (racemic)
[23]
  Selectivity Index: >20
Plasmodium falciparum [1]
  IC50: 271 nM
Plasmodium falciparum [2]
  IC50: 235 nM
[24]
  CC50: > 10000 nM
[25]
  Selectivity Index: >20

## CC(C)CC(N)C(=O)N1CCn2c(nc(-c3ccccc3)c2Nc2ccc3c(c2)OCO3)C1 (racemic)
[23]
  Selectivity Index: >20
Plasmodium falciparum [1]
  IC50: 119 nM
Plasmodium falciparum [2]
  IC50: 116 nM
[24]
  CC50: > 10000 nM
[25]
  Selectivity Index: >20

## C[C@@H]1CC[C@H]2[C@@H](C)C(=O)O[C@@H]3O[C@@]4(C)CC[C@@H]1[C@]32OO4 [ARTEMISININ]
Plasmodium falciparum [2]
  IC50: 12 nM

## C[C@H]1[C@H](OC(=O)CCC(=O)O)O[C@@H]2O[C@@]3(C)CC[C@H]4[C@H](C)CC[C@@H]1[C@@]24OO3 [ARTESUNATE]
Plasmodium berghei [13]
  Survival: 6.7 days
Plasmodium berghei [19]
  Survival: 7.2 days
Plasmodium berghei [22]
  Activity: 89%
Plasmodium berghei [20]
  Activity: 97%

## CCN(CC)CCCC(C)Nc1ccnc2cc(Cl)ccc12 (centres undefined) [CHLOROQUINE]
Plasmodium berghei [26]
  Survival: 18.8 days
Plasmodium berghei [13]
  Survival: 12 days
Plasmodium berghei [19]
  Survival: 8.7 days
Plasmodium berghei [20]
  Activity: >99.9%

## CCc1nc(N)nc(N)c1-c1ccc(Cl)cc1 [PYRIMETHAMINE]
Plasmodium falciparum [1]
  IC50: > 10000 nM
